Laboratory results published in ChEMBL document CHEMBL5576051, “Synthesis of 2,2-dimethyl-chroman-based stereochemically flexible and constrained anti-breast cancer agents” (Bioorg Med Chem Lett, 2024).
Activity calls are given as the source filed them. No cut-off for these calls is given here.

How the values were obtained:
MDA-MB-231 [1] = assay: Antiproliferative activity against estrogen receptor negative human MDA-MB-231 cells assessed as inhibition of cell viability by MTT assay; format: functional, cell-based
MCF7 [2] = assay: Antiproliferative activity against estrogen receptor positive human MCF7 cells assessed as inhibition of cell viability by MTT assay; format: functional, cell-based
MCF7 [3] = assay: Induction of cell cycle arrest in estrogen receptor positive human MCF7 cells assessed as accumulation of cells at G0/G1 phase at 11uM incubated for 24 hrs (reference value: 60.49%); format: functional
MCF7 [4] = assay: Induction of cell cycle arrest in estrogen receptor positive human MCF7 cells assessed as accumulation of cells at S phase at 11 uM incubated for 24 hrs (reference value: 20.84%); format: functional
MCF7 [5] = assay: Induction of cell cycle arrest in estrogen receptor positive human MCF7 cells assessed as accumulation of cells at G2/M phase at 11 uM incubated for 24 hrs (reference value: 19.32%); format: functional
MDA-MB-231 [6] = assay: Induction of cell cycle arrest in estrogen receptor negative human MDA-MB-231 cells assessed as accumulation of cells at G0/G1 phase at 9 uM incubated for 24 hrs (reference value: 61.44%); format: functional
MDA-MB-231 [7] = assay: Induction of cell cycle arrest in estrogen receptor […] human MDA-MB-231 cells assessed as accumulation of cells at S phase at 9 uM incubated for 24 hrs (reference value: 25.49%); format: functional
MDA-MB-231 [8] = assay: Induction of cell cycle arrest in estrogen receptor […] human MDA-MB-231 cells assessed as accumulation of cells at G2/M phase at 9 uM incubated for 24 hrs (reference value: 13.64%); format: functional
MDA-MB-231 [9] = assay: Induction of apoptosis in human MDA-MB-231 cells assessed as inhibition of PARP level; format: functional, cell-based
MCF7 [10] = assay: Induction of apoptosis in human MCF7 cells assessed as inhibition of PARP level; format: functional, cell-based
MCF7 [11] = assay: Induction of cell cycle arrest in estrogen receptor positive human MCF7 cells assessed as accumulation of cells at G0/G1 phase at 12.9 uM incubated for 24 hrs (reference value: 60.49%); format: functional
MCF7 [12] = assay: Induction of cell cycle arrest in estrogen receptor positive human MCF7 cells assessed as accumulation of cells at S phase at 12.9 uM incubated for 24 hrs (reference value: 20.84%); format: functional
MCF7 [13] = assay: Induction of cell cycle arrest in estrogen receptor positive human MCF7 cells assessed as accumulation of cells at G2/M phase at 12.9 uM incubated for 24 hrs (reference value: 19.32%); format: functional
MDA-MB-231 [14] = assay: Induction of cell cycle arrest in estrogen receptor negative human MDA-MB-231 cells assessed as accumulation of cells at G0/G1 phase at 8.8 uM incubated for 24 hrs (reference value: 61.44%); format: functional
MDA-MB-231 [15] = assay: Induction of cell cycle arrest in estrogen receptor […] human MDA-MB-231 cells assessed as accumulation of cells at S phase at 8.8 uM incubated for 24 hrs (reference value: 25.49%); format: functional
MDA-MB-231 [16] = assay: Induction of cell cycle arrest in estrogen receptor […] human MDA-MB-231 cells assessed as accumulation of cells at G2/M phase at 8.8 uM incubated for 24 hrs (reference value: 13.64%); format: functional

SMILES: COc1ccc2c(c1)OC(C)(C)CC2C(c1ccccc1)c1ccccc1OCC(C)N(C)C (stereo not drawn)
- IC50 (MDA-MB-231 [1]): 11 µM
- IC50 (MCF7 [2]): 14 µM

SMILES: COc1ccc2c(c1)OC(C)(C)C/C2=C(\c1ccccc1)c1ccccc1OCC(C)N(C)C (stereo not drawn)
- IC50 (MDA-MB-231 [1]): 9 µM
- IC50 (MCF7 [2]): 11 µM
- Activity (MCF7 [3]): 58.31%
- Activity (MCF7 [4]): 20%
- Activity (MCF7 [5]): 22.64%
- Activity (MDA-MB-231 [6]): 66.73%
- Activity (MDA-MB-231 [7]): 21.11%
- Activity (MDA-MB-231 [8]): 12.94%
- Activity (MDA-MB-231 [9]): Active
- Activity (MCF7 [10]): Active

SMILES: COc1ccc2c(c1)OC(C)(C)C/C2=C(\c1ccccc1)c1ccccc1O
- IC50 (MDA-MB-231 [1]): 12 µM
- IC50 (MCF7 [2]): 16 µM

SMILES: COc1ccc2c(c1)OC(C)(C)CC2C(c1ccccc1)c1ccc(OCCN2CCCC2)cc1 (stereo not drawn)
- IC50 (MDA-MB-231 [1]): 9.6 µM
- IC50 (MCF7 [2]): 13.3 µM

SMILES: COc1ccc2c(c1)OC(C)(C)C/C2=C(\c1ccccc1)c1ccccc1OCCN(C)C
- IC50 (MDA-MB-231 [1]): 8.8 µM
- IC50 (MCF7 [2]): 12.9 µM
- Activity (MCF7 [11]): 63.58%
- Activity (MCF7 [12]): 17.85%
- Activity (MCF7 [13]): 19.26%
- Activity (MDA-MB-231 [14]): 70.51%
- Activity (MDA-MB-231 [15]): 16.79%
- Activity (MDA-MB-231 [16]): 13.2%
- Activity (MDA-MB-231 [9]): Active
- Activity (MCF7 [10]): Active

SMILES: COc1ccc2c(c1)OC(C)(C)CC2C(c1ccccc1)c1ccccc1O (stereo not drawn)
- IC50 (MDA-MB-231 [1]): 10.4 µM
- IC50 (MCF7 [2]): 13.6 µM

SMILES: COc1ccc2c(c1)OC(C)(C)CC2C(c1ccccc1)c1ccccc1OCCN1CCCC1 (stereo not drawn)
- IC50 (MDA-MB-231 [1]): 20 µM
- IC50 (MCF7 [2]): 25 µM

SMILES: CCN(CC)CCOc1ccc(C(c2ccccc2)C2CC(C)(C)Oc3cc(OC)ccc32)cc1 (stereo not drawn)
- IC50 (MDA-MB-231 [1]): 11.5 µM
- IC50 (MCF7 [2]): 15.4 µM

SMILES: COc1ccc2c(c1)OC(C)(C)CC2C(c1ccccc1)c1ccccc1OCCN(C)C (stereo not drawn)
- IC50 (MDA-MB-231 [1]): 8.5 µM
- IC50 (MCF7 [2]): 13.5 µM

SMILES: COc1ccc2c(c1)OC(C)(C)CC2C(c1ccccc1)c1ccc(OCCN2CCCCC2)cc1 (stereo not drawn)
- IC50 (MDA-MB-231 [1]): 8.5 µM
- IC50 (MCF7 [2]): 13.3 µM

SMILES: COc1ccc2c(c1)OC(C)(C)C/C2=C(\c1ccccc1)c1ccccc1OCCN1CCCCC1
- IC50 (MDA-MB-231 [1]): 12 µM
- IC50 (MCF7 [2]): 16 µM
